Measurements taken from PMC8949503, “Radiosynthesis and Preclinical Evaluation of Bispecific PSMA/FAP Heterodimers for Tumor Imaging” (Pharmaceuticals, 2022).
One block for each compound: values may come before it.

Experiments:
A549-FAP cells [1] = experiment: cell uptake and blocking study in A549-FAP cells; assay type: cell-based; conditions: for cell uptake, blocked: +DOTA-FAPI-04 (2.3 μM)
Procedure: PSMA-positive 22Rv1 cells (purchased from Institute of Biochemistry and Cell Biology, Shanghai, China) and stably FAP-transfected A549-FAP cells (acquired using lentiviral infection) were used for the cell-based experiments. The 22Rv1 cells were cultivated in RPMI-1640 medium (Gibco) at 37 °C/5% carbon dioxide, while the A549-FAP cells were cultivated in DMEM medium. Both media were supplemented with 10% heat-inactivated fetal bovine serum (FBS) and 1% penicillin/streptomycin (Gibco). Puromycin (1 µg/mL) was also added to the media to maintain FAP expression.
Cells were seeded in 12-well plates 2 days in advance to achieve a final confluence of approximately 80–90% (4–5 × 10^5 cells/well). The medium was displaced by 1 mL fresh medium without FBS. The method of cell studies was similar to a method reported previously. For the competitive binding experiments, cells were incubated with the known radiotracers ([^18F]FAPI-42 for the FAP receptor and [^18F]AlF-PSMA-BCH for PSMA) in the presence of 7 different concentrations (10^−5–10^−11 M) of the corresponding unlabeled heterodimers or corresponding monomer and incubated for 60 min at 37 °C. In all experiments, the cells were washed twice with PBS, lysed with 1 M NaOH, and counted using a γ-counter. IC50 values were calculated by fitting the data using a nonlinear regression algorithm (implemented in SPSS). For the radioligand binding studies, the cells were incubated for 5, 15, 30, 60, or 120 min at 37 °C after the addition of the heterodimer or corresponding monomeric radiotracer radiotracers. The blocking experiments were determined by adding the corresponding competitors (4.4 μM 2-PMPA for 22Rv1 cells and 2.3 μM DOTA-FAPI-04 for A549-FAP cells). Radioactivity was measured using a γ-counter, normalized to 1 million cells (1 mio cells), and calculated as the percentage of the applied dose (%ID/1 mio cells). For the internalization experiments, the cells were incubated with the radiolabeled compound for 60 min, washed twice with 1 mL PBS, and then incubated for 10 min with 1 mL glycine HCl (1 M, pH 2.2) to detach the extracellular bound tracer. Next, the cells were washed with PBS (2.0 mL) and lysed with 1 M NaOH (1.5 mL). The radioactivity of the acid wash solution (extracellularly bound tracer) and cell lysate (internalized tracer) was assessed separately using a γ-counter. For the efflux experiments, the radioactive medium was removed after 60 min incubation and replaced with non-radioactive medium. At predetermined time points of 15, 30, 60, and 120 min, the cells were washed with 1.0 mL PBS three times and then lysed. The radioactivity of the remaining cells was assessed using a γ-counter. Each experiment was conducted three times with three or four replicates per independent experiment.

[2] = system: A549-FAP tumor xenografts; experiment: dynamic micro-PET imaging in A549-FAP tumor xenografts; assay type: in vivo; conditions: A549-FAP tumor-bearing nude mice, up to 2 h p.i.
Procedure: (§1) For the biodistribution and micro-PET imaging studies, male BALB/c nude mice (6–8 weeks) were subcutaneously inoculated with 1 × 10^7 22Rv1 or 5 × 10^6 A549-FAP cells in the right shoulder. Mice were imaged or used in the biodistribution studies when the tumor reached 5–10 mm in diameter.
Mice bearing xenografted 22Rv1 or A549FAP tumors (n = 3 per group) were anesthetized and placed in the prone position in a micro-PET scanner (Siemens, Erlangen, Germany). Dynamic PET/CT images were acquired 2 h post-injection (p.i.) with the radiotracer (5.55–11.1 MBq). The blocking experiments were performed by co-injecting 3 mg/kg of 2-PMPA for mice bearing 22Rv1 tumors or 3 mg/kg of DOTA-FAPI-04 for mice bearing A549-FAP tumors. The images were reconstructed using a three-dimensional ordered-subset expectation maximum algorithm and converted to %ID/g. Attenuation correction was performed using the unenhanced low-dose CT data. For data analysis, the regions of interest (ROIs) were manually drawn over the tumors and major organs on decay-corrected whole-body coronal images obtained using Inevon Research Workplace 4.1 software.

[3] = system: 22Rv1 tumor-bearing nude mice; experiment: tissue biodistribution and blocking in 22Rv1 tumor-bearing nude mice; assay type: in vivo; conditions: 1 h p.i.; for 22Rv1 tumor* uptake, Blocked / Kidney* uptake, Blocked: co-injected 2-PMPA 3 mg/kg
Procedure: as §1
(§2) Mice bearing 22Rv1 or A549-FAP (n = 4 in each group) tumors were euthanized 60 min after intravenous administration of each tracer (740–1480 KBq/mouse). In the blocking group, the same experiment was conducted by co-injecting 50 μg of 2-PMPA for mice bearing 22Rv1 tumors or 50 μg of DOTA-FAPI-04 for mice bearing A549-FAP tumors. The organs of interest and tumors were quickly dissected and weighed. Radioactivity was assessed using a γ-counter and calculated as the percentage injected dose per gram (%ID/g).

[4] = system: A549-FAP tumor-bearing nude mice; experiment: tissue biodistribution and blocking in A549-FAP tumor-bearing nude mice; assay type: in vivo; conditions: 1 h p.i.; for A549-FAP tumor uptake, Blocked / Blood uptake, Blocked / Bone uptake, Blocked / Brain uptake, Blocked / Gall bladder uptake, Blocked / Heart uptake, Blocked / Kidney uptake, Blocked / Liver uptake, Blocked / Lung uptake, Blocked / Muscle uptake, Blocked / Small intestine uptake, Blocked / Spleen uptake, Blocked / Stomach uptake, Blocked: co-injected DOTA-FAPI-04 3 mg/kg
Procedure: as §1, §2

[5] = n-octanol/PBS partition coefficient (logD); assay type: physicochemical; conditions: PBS pH 7.4, ambient temperature
Procedure: An aliquot (74 kBq) of [^18F]AlF-PSMA-FAPI-01 or [^18F]AlF-PSMA-FAPI-02 was added to a centrifuge tube containing a mixture of phosphate-buffered solution (PBS, pH 7.4, 5.0 mL) and n-octanol (5.0 mL). The mixture was vigorously vortexed at ambient temperature for 5 min and then centrifuged (10,000 rpm, 5 min). Three samples (each 100 µL) from each phase underwent radioactivity measurement using a γ-counter (CAPRAC-R, Capintec, Inc., Ramsey, NJ, USA).

22Rv1 cells = experiment: efflux in 22Rv1 cells; assay type: cell-based; conditions: 2 h incubation
Procedure: (§3) Cells were seeded in 12-well plates 2 days in advance to achieve a final confluence of approximately 80–90% (4–5 × 10^5 cells/well). The medium was displaced by 1 mL fresh medium without FBS. The method of cell studies was similar to a method reported previously. For the competitive binding experiments, cells were incubated with the known radiotracers ([^18F]FAPI-42 for the FAP receptor and [^18F]AlF-PSMA-BCH for PSMA) in the presence of 7 different concentrations (10^−5–10^−11 M) of the corresponding unlabeled heterodimers or corresponding monomer and incubated for 60 min at 37 °C. In all experiments, the cells were washed twice with PBS, lysed with 1 M NaOH, and counted using a γ-counter. IC50 values were calculated by fitting the data using a nonlinear regression algorithm (implemented in SPSS). […] The blocking experiments were determined by adding the corresponding competitors (4.4 μM 2-PMPA for 22Rv1 cells and 2.3 μM DOTA-FAPI-04 for A549-FAP cells). Radioactivity was measured using a γ-counter, normalized to 1 million cells (1 mio cells), and calculated as the percentage of the applied dose (%ID/1 mio cells). […] The radioactivity of the acid wash solution (extracellularly bound tracer) and cell lysate (internalized tracer) was assessed separately using a γ-counter. […] The radioactivity of the remaining cells was assessed using a γ-counter. […]

A549-FAP cells [6] = experiment: efflux in A549-FAP cells; assay type: cell-based; conditions: 2 h incubation
Procedure: as §3

22Rv1 tumor* uptake [3]: 12.37 ± 0.40 %ID/g
Kidney* uptake [3]: 23.4 ± 9.22 %ID/g
22Rv1 tumor* uptake, Blocked [3]: 5.03 ± 0.75 %ID/g
Kidney* uptake, Blocked [3]: 2.85 ± 0.38 %ID/g
A549-FAP tumor uptake [4]: 6.40 ± 0.32 %ID/g
Blood uptake [4]: 2.36 ± 0.60 %ID/g
Bone uptake [4]: 4.09 ± 0.76 %ID/g
Brain uptake [4]: 0.16 ± 0.03 %ID/g
Gall bladder uptake [4]: 2.02 ± 0.40 %ID/g
Heart uptake [4]: 1.56 ± 0.14 %ID/g
Kidney uptake [4]: 23.88 ± 3.01 %ID/g
Liver uptake [4]: 1.38 ± 0.11 %ID/g
Lung uptake [4]: 1.82 ± 0.18 %ID/g
Muscle uptake [4]: 2.18 ± 0.48 %ID/g
Small intestine uptake [4]: 1.23 ± 0.21 %ID/g
Spleen uptake [4]: 0.99 ± 0.17 %ID/g
Stomach uptake [4]: 1.03 ± 0.13 %ID/g
A549-FAP tumor uptake, Blocked [4]: 1.38 ± 0.77 %ID/g
Blood uptake, Blocked [4]: 0.88 ± 0.62 %ID/g
Bone uptake, Blocked [4]: 1.53 ± 0.21 %ID/g
Brain uptake, Blocked [4]: 0.09 ± 0.03 %ID/g
Gall bladder uptake, Blocked [4]: 1.67 ± 0.32 %ID/g
Heart uptake, Blocked [4]: 0.41 ± 0.02 %ID/g
Kidney uptake, Blocked [4]: 28.65 ± 6.05 %ID/g
Liver uptake, Blocked [4]: 0.79 ± 0.37 %ID/g
Lung uptake, Blocked [4]: 1.66 ± 0.33 %ID/g
Muscle uptake, Blocked [4]: 0.32 ± 0.05 %ID/g
Small intestine uptake, Blocked [4]: 1.04 ± 0.53 %ID/g
Spleen uptake, Blocked [4]: 0.67 ± 0.20 %ID/g
Stomach uptake, Blocked [4]: 0.91 ± 0.43 %ID/g
n-octanol/PBS distribution coefficient (logD) [5]: −2.74 ± 0.02
SMILES: N#C[C@@H]1CC(F)(F)CN1C(=O)CNC(=O)c1ccnc2ccc(OCCCC(=O)NCCCC[C@H](NC(=O)CN3CCN4CCN(CC3)CC(=O)[O][Al]([18F])[O]C(=O)C4)C(=O)NCC3CCC(C(=O)N[C@H](Cc4ccc5ccccc5c4)C(=O)NCCCC[C@H](NC(=O)N[C@@H](CCC(=O)O)C(=O)O)C(=O)O)CC3)cc12 (some centres unmarked) [[^18F]AlF-PSMA-FAPI-01]
cell uptake (A549-FAP cells [1]; 5 min): 8.15 ± 0.31 % ID/1 million cells
cell uptake, blocked (A549-FAP cells [1]; 5 min): 0.67 ± 0.07 % ID/1 million cells
cell uptake (A549-FAP cells [1]; 15 min): 16.57 ± 0.98 % ID/1 million cells
cell uptake, blocked (A549-FAP cells [1]; 15 min): 0.71 ± 0.09 % ID/1 million cells
cell uptake (A549-FAP cells [1]; 30 min): 23.73 ± 0.33 % ID/1 million cells
cell uptake, blocked (A549-FAP cells [1]; 30 min): 0.77 ± 0.01 % ID/1 million cells
cell uptake (A549-FAP cells [1]; 60 min): 30.36 ± 3.53 % ID/1 million cells
cell uptake, blocked (A549-FAP cells [1]; 60 min): 0.83 ± 0.09 % ID/1 million cells
cell uptake (A549-FAP cells [1]; 120 min): 28.23 ± 2.97 % ID/1 million cells
cell uptake, blocked (A549-FAP cells [1]; 120 min): 1.16 ± 0.06 % ID/1 million cells
time–activity curves (micro-PET) [2]: rapid uptake and excellent retention in tumors, as well as rapid clearance from non-target organs via the kidneys

22Rv1 tumor* uptake [3]: 12.85 ± 2.43 %ID/g
Kidney* uptake [3]: 27.0 ± 11.9 %ID/g
22Rv1 tumor* uptake, Blocked [3]: 6.85 ± 1.53 %ID/g
Kidney* uptake, Blocked [3]: 2.94 ± 0.35 %ID/g
A549-FAP tumor uptake [4]: 6.47 ± 0.76 %ID/g
Blood uptake [4]: 1.98 ± 0.46 %ID/g
Bone uptake [4]: 5.53 ± 0.18 %ID/g
Brain uptake [4]: 0.11 ± 0.03 %ID/g
Gall bladder uptake [4]: 2.23 ± 1.07 %ID/g
Heart uptake [4]: 0.84 ± 0.17 %ID/g
Kidney uptake [4]: 23.10 ± 7.91 %ID/g
Liver uptake [4]: 0.81 ± 0.22 %ID/g
Lung uptake [4]: 1.37 ± 0.22 %ID/g
Muscle uptake [4]: 1.35 ± 0.36 %ID/g
Small intestine uptake [4]: 0.84 ± 0.33 %ID/g
Spleen uptake [4]: 0.51 ± 0.16 %ID/g
Stomach uptake [4]: 0.83 ± 0.42 %ID/g
A549-FAP tumor uptake, Blocked [4]: 1.11 ± 0.88 %ID/g
Blood uptake, Blocked [4]: 0.57 ± 0.19 %ID/g
Bone uptake, Blocked [4]: 3.83 ± 0.02 %ID/g
Brain uptake, Blocked [4]: 0.07 ± 0.03 %ID/g
Gall bladder uptake, Blocked [4]: 1.39 ± 0.20 %ID/g
Heart uptake, Blocked [4]: 0.28 ± 0.07 %ID/g
Kidney uptake, Blocked [4]: 26.70 ± 10.80 %ID/g
Liver uptake, Blocked [4]: 0.41 ± 0.12 %ID/g
Lung uptake, Blocked [4]: 0.90 ± 0.24 %ID/g
Muscle uptake, Blocked [4]: 0.85 ± 0.39 %ID/g
Small intestine uptake, Blocked [4]: 0.55 ± 0.29 %ID/g
Spleen uptake, Blocked [4]: 0.30 ± 0.03 %ID/g
Stomach uptake, Blocked [4]: 0.37 ± 0.06 %ID/g
n-octanol/PBS distribution coefficient (logD) [5]: −2.04 ± 0.04
SMILES: N#C[C@@H]1CC(F)(F)CN1C(=O)CNC(=O)c1ccnc2ccc(OCCCN3CCN(C(=O)CCC(=O)NCCCC[C@H](NC(=O)CN4CCN5CCN(CC4)CC(=O)[O][Al]([18F])[O]C(=O)C5)C(=O)NC[C@H]4CC[C@H](C(=O)N[C@H](Cc5ccc6ccccc6c5)C(=O)NCCCC[C@H](NC(=O)N[C@@H](CCC(=O)O)C(=O)O)C(=O)O)CC4)CC3)cc12 [[^18F]AlF-PSMA-FAPI-02]
cell uptake (A549-FAP cells [1]; 5 min): 11.66 ± 0.39 % ID/1 million cells
cell uptake, blocked (A549-FAP cells [1]; 5 min): 1.28 ± 0.08 % ID/1 million cells
cell uptake (A549-FAP cells [1]; 15 min): 17.03 ± 0.85 % ID/1 million cells
cell uptake, blocked (A549-FAP cells [1]; 15 min): 1.29 ± 0.38 % ID/1 million cells
cell uptake (A549-FAP cells [1]; 30 min): 23.26 ± 1.59 % ID/1 million cells
cell uptake, blocked (A549-FAP cells [1]; 30 min): 1.31 ± 0.16 % ID/1 million cells
cell uptake (A549-FAP cells [1]; 60 min): 27.02 ± 2.21 % ID/1 million cells
cell uptake, blocked (A549-FAP cells [1]; 60 min): 1.59 ± 0.65 % ID/1 million cells
cell uptake (A549-FAP cells [1]; 120 min): 32.55 ± 1.42 % ID/1 million cells
cell uptake, blocked (A549-FAP cells [1]; 120 min): 1.71 ± 0.23 % ID/1 million cells
time–activity curves (micro-PET) [2]: rapid uptake and excellent retention in tumors, as well as rapid clearance from non-target organs via the kidneys
cell efflux (22Rv1 cells): lower cellular efflux
cell efflux (A549-FAP cells [6]): lower cellular efflux
